From ChEMBL document CHEMBL3997821, “Design, synthesis and evaluation of novel pyrazolo-pyrimido[4,5-d]pyrimidine derivatives as potent antibacterial and biofilm inhibitors” (Bioorg Med Chem Lett, 2017)
In brackets after ≈: the same amount, converted by molar mass. Activity calls are given as the source filed them. The calls are words filed in the database; no cut-off is given here.

How the values were obtained:
Pseudomonas aeruginosa = experiment: Antibacterial activity against Pseudomonas aeruginosa MTCC 2453 after 24 hrs by well diffusion method; type: functional; settings: MTCC 2453, 24 h
Staphylococcus aureus [1] = experiment: Bactericidal activity against Staphylococcus aureus MTCC 96 after 24 hrs by serial dilution method; type: functional; settings: MTCC 96, 24 h
Staphylococcus aureus [2] = experiment: Antibacterial activity against Staphylococcus aureus MTCC 96 after 24 hrs by well diffusion method; type: functional; settings: MTCC 96, 24 h
Staphylococcus aureus [3] = experiment: Antibiofilm activity against Staphylococcus aureus MTCC 96 after 24 hrs by crystal violet staining based assay; type: functional; settings: MTCC 96, 24 h
Staphylococcus aureus [4] = experiment: Ratio of MBC to MIC for Staphylococcus aureus MTCC 96; type: functional
Staphylococcus aureus [5] = experiment: Ratio of MBC to MIC for Staphylococcus aureus MLS16 MTCC 2940; type: functional
Micrococcus luteus [6] = experiment: Antibacterial activity against Micrococcus luteus MTCC 2470 after 24 hrs by well diffusion method; type: functional; settings: MTCC 2470, 24 h
Micrococcus luteus [7] = experiment: Bactericidal activity against Micrococcus luteus MTCC 2470 after 24 hrs by serial dilution method; type: functional; settings: MTCC 2470, 24 h
Bacillus subtilis [8] = experiment: Antibiofilm activity against Bacillus subtilis MTCC 121 after 24 hrs by crystal violet staining based assay; type: functional; settings: MTCC 121, 24 h
Staphylococcus aureus [9] = experiment: Bactericidal activity against Staphylococcus aureus MLS16 MTCC 2940 after 24 hrs by serial dilution method; type: functional; settings: MLS16 MTCC 2940, 24 h
Raoultella planticola = experiment: Antibacterial activity against Klebsiella planticola MTCC 530 after 24 hrs by well diffusion method; type: functional; settings: MTCC 530, 24 h
Escherichia coli = experiment: Antibacterial activity against Escherichia coli MTCC 739 after 24 hrs by well diffusion method; type: functional; settings: MTCC 739, 24 h
Staphylococcus aureus [10] = experiment: Antibiofilm activity against Staphylococcus aureus MLS16 MTCC 2940 after 24 hrs by crystal violet staining based assay; type: functional; settings: MLS16 MTCC 2940, 24 h
Micrococcus luteus [11] = experiment: Ratio of MBC to MIC for Micrococcus luteus MTCC 2470; type: functional
Staphylococcus aureus [12] = experiment: Antibacterial activity against Staphylococcus aureus MLS16 MTCC 2940 after 24 hrs by well diffusion method; type: functional; settings: MLS16 MTCC 2940, 24 h
Bacillus subtilis [13] = experiment: Antibacterial activity against Bacillus subtilis MTCC 121 after 24 hrs by well diffusion method; type: functional; settings: MTCC 121, 24 h
Bacillus subtilis [14] = experiment: Ratio of MBC to MIC for Bacillus subtilis MTCC 121; type: functional
Bacillus subtilis [15] = experiment: Bactericidal activity against Bacillus subtilis MTCC 121 after 24 hrs by serial dilution method; type: functional; settings: MTCC 121, 24 h
Micrococcus luteus [16] = experiment: Antibiofilm activity against Micrococcus luteus MTCC 2470 after 24 hrs by crystal violet staining based assay; type: functional; settings: MTCC 2470, 24 h
Micrococcus luteus [17] = experiment: Induction of ROS generation in Micrococcus luteus MTCC 2470 mature biofilms at up to 4 ug/ml after 24 hrs by DCFH-DA staining based fluorometric assay; type: functional
Micrococcus luteus [18] = experiment: Induction of membrane permeability in Micrococcus luteus MTCC 2470 assessed as protein leakage at 1 to 2 times antibacterial MIC up to 12 hrs by Bradford protein assay; type: functional
Micrococcus luteus [19] = experiment: Induction of ROS generation in Micrococcus luteus MTCC 2470 mature biofilms at 0.5 to 2 ug/ml after 24 hrs by DCFH-DA staining based fluorometric assay; type: functional
Micrococcus luteus [20] = experiment: Induction of membrane permeability in Micrococcus luteus MTCC 2470 assessed as protein leakage at 1 to 2 times antibacterial MIC after 12 to 24 hrs by Bradford protein assay; type: functional
Micrococcus luteus [21] = experiment: Induction of intracellular ROS accumulation in Micrococcus luteus MTCC 2470 sessile biofilm cells at 0.5 to 4 ug/ml after 24 hrs by DCFH-DA staining-based assay; type: functional, cell-based

SMILES	MIC (Pseudomonas aeruginosa) [µg/mL]	MBC (Staphylococcus aureus [1]) [µg/mL]	MIC (Staphylococcus aureus [2]) [µg/mL]	MIC (Micrococcus luteus [6]) [µg/mL]	MBC (Micrococcus luteus [7]) [µg/mL]	MBC (Staphylococcus aureus [9]) [µg/mL]	MIC (Raoultella planticola) [µg/mL]	MIC (Escherichia coli) [µg/mL]	IC50 (Staphylococcus aureus [10]) [µg/mL]	MIC (Staphylococcus aureus [12]) [µg/mL]	MIC (Bacillus subtilis [13]) [µg/mL]	MBC (Bacillus subtilis [15]) [µg/mL]	other results
Cc1ccc(N2C=Nc3c(c(=O)n(C)c(=O)n3C)C2c2cn(-c3ccccc3)nc2-c2ccc([N+](=O)[O-])cc2)cc1 (stereo unspecified)	> 125	31.2 (≈ 57 µM)	15.6 (≈ 28.5 µM)	15.6 (≈ 28.5 µM)	15.6 (≈ 28.5 µM)	15.6 (≈ 28.5 µM)	> 125	> 125	9.5 (≈ 17.3 µM)	7.8 (≈ 14.2 µM)	7.8 (≈ 14.2 µM)	31.2 (≈ 57 µM)	IC50 (Staphylococcus aureus [3]): 12.6 µg/mL (≈ 23 µM); Ratio (Staphylococcus aureus [4]): 2; Ratio (Staphylococcus aureus [5]): 2; IC50 (Bacillus subtilis [8]): 18.3 µg/mL (≈ 33.4 µM); Ratio (Micrococcus luteus [11]): 2; Ratio (Bacillus subtilis [14]): 2; IC50 (Micrococcus luteus [16]): 10.1 µg/mL (≈ 18.4 µM)
Cc1ccc(N2C=Nc3c(c(=O)n(C)c(=O)n3C)C2c2cn(-c3ccccc3)nc2-c2ccc(Cl)cc2)cc1 (stereo unspecified)	> 125	> 125	> 125	15.6 (≈ 29 µM)	31.2 (≈ 58.1 µM)	> 125	> 125	> 125		> 125	> 125	> 125	
Cc1ccc(N2C=Nc3c(c(=O)n(C)c(=O)n3C)C2c2cn(-c3ccccc3)nc2-c2cccs2)cc1 (stereo unspecified)	> 125	31.2 (≈ 61.3 µM)	15.6 (≈ 30.7 µM)	15.6 (≈ 30.7 µM)	31.2 (≈ 61.3 µM)	31.2 (≈ 61.3 µM)	> 125	> 125		15.6 (≈ 30.7 µM)	31.2 (≈ 61.3 µM)	31.2 (≈ 61.3 µM)	
COc1ccc(N2C=Nc3c(c(=O)n(C)c(=O)n3C)C2c2cn(-c3ccccc3)nc2-c2ccc(C)cc2)cc1 (stereo unspecified)	> 125	62.5 (≈ 117 µM)	> 125	> 125	15.6 (≈ 29.3 µM)	31.2 (≈ 58.6 µM)	> 125	> 125		> 125	> 125	62.5 (≈ 117 µM)	
Cn1c2c(c(=O)n(C)c1=O)C(c1cn(-c3ccccc3)nc1-c1ccc([N+](=O)[O-])cc1)N(c1cccc([N+](=O)[O-])c1)C=N2 (stereo unspecified)	> 125	> 125	> 125	31.2 (≈ 53.9 µM)	62.5 (≈ 108 µM)	> 125	> 125	> 125		> 125	> 125	> 125	
COc1ccc(N2C=Nc3c(c(=O)n(C)c(=O)n3C)C2c2cn(-c3ccccc3)nc2-c2ccc([N+](=O)[O-])cc2)cc1 (stereo unspecified)	> 125	62.5 (≈ 111 µM)	31.2 (≈ 55.4 µM)	15.6 (≈ 27.7 µM)	15.6 (≈ 27.7 µM)	31.2 (≈ 55.4 µM)	> 125	> 125		31.2 (≈ 55.4 µM)	31.2 (≈ 55.4 µM)	31.2 (≈ 55.4 µM)	
Cn1c2c(c(=O)n(C)c1=O)C(c1cn(-c3ccccc3)nc1-c1cccs1)N(c1ccc(Cl)cc1)C=N2 (stereo unspecified)	> 125	31.2 (≈ 59 µM)	31.2 (≈ 59 µM)	15.6 (≈ 29.5 µM)	31.2 (≈ 59 µM)	31.2 (≈ 59 µM)	> 125	> 125		15.6 (≈ 29.5 µM)	15.6 (≈ 29.5 µM)	31.2 (≈ 59 µM)	
O=C(O)c1cn(C2CC2)c2cc(N3CCNCC3)c(F)cc2c1=O [CIPROFLOXACIN]	0.9 (≈ 2.72 µM)	1.9 (≈ 5.73 µM)	0.9 (≈ 2.72 µM)	0.9 (≈ 2.72 µM)	1.9 (≈ 5.73 µM)	0.9 (≈ 2.72 µM)	0.9 (≈ 2.72 µM)	0.9 (≈ 2.72 µM)	0.4 (≈ 1.21 µM)	0.9 (≈ 2.72 µM)	0.9 (≈ 2.72 µM)	0.9 (≈ 2.72 µM)	Activity (Micrococcus luteus [17]): Active
COc1ccc(N2C=Nc3c(c(=O)n(C)c(=O)n3C)C2c2cn(-c3ccccc3)nc2-c2ccc(Cl)cc2)cc1 (stereo unspecified)	> 125	31.2 (≈ 56.4 µM)	15.6 (≈ 28.2 µM)	7.8 (≈ 14.1 µM)	15.6 (≈ 28.2 µM)	15.6 (≈ 28.2 µM)	> 125	> 125		15.6 (≈ 28.2 µM)	31.2 (≈ 56.4 µM)	31.2 (≈ 56.4 µM)	Ratio (Staphylococcus aureus [5]): 2; Ratio (Bacillus subtilis [14]): 2
Cc1ccc(-c2nn(-c3ccccc3)cc2C2c3c(n(C)c(=O)n(C)c3=O)N=CN2c2ccc(Cl)cc2)cc1 (stereo unspecified)	> 125	7.8 (≈ 14.5 µM)	7.8 (≈ 14.5 µM)	3.9 (≈ 7.26 µM)	15.6 (≈ 29 µM)	31.2 (≈ 58.1 µM)	> 125	> 125	4.4 (≈ 8.19 µM)	7.8 (≈ 14.5 µM)	7.8 (≈ 14.5 µM)	7.8 (≈ 14.5 µM)	Activity (Micrococcus luteus [18]): inactive; IC50 (Staphylococcus aureus [3]): 3.9 µg/mL (≈ 7.26 µM); Ratio (Staphylococcus aureus [4]): 2; Activity (Micrococcus luteus [19]): Active; IC50 (Bacillus subtilis [8]): 4.1 µg/mL (≈ 7.63 µM); Activity (Micrococcus luteus [20]): Active; Activity (Micrococcus luteus [21]): Active; Ratio (Micrococcus luteus [11]): 2; IC50 (Micrococcus luteus [16]): 1.8 µg/mL (≈ 3.35 µM)
Cc1ccc(-c2nn(-c3ccccc3)cc2C2c3c(n(C)c(=O)n(C)c3=O)N=CN2c2ccc(C)cc2)cc1 (stereo unspecified)	> 125	15.6 (≈ 30.2 µM)	7.8 (≈ 15.1 µM)	7.8 (≈ 15.1 µM)	15.6 (≈ 30.2 µM)	15.6 (≈ 30.2 µM)	> 125	> 125	8.2 (≈ 15.9 µM)	15.6 (≈ 30.2 µM)	7.8 (≈ 15.1 µM)	31.2 (≈ 60.4 µM)	IC50 (Staphylococcus aureus [3]): 4.2 µg/mL (≈ 8.13 µM); Ratio (Staphylococcus aureus [4]): 2; Ratio (Staphylococcus aureus [5]): 2; IC50 (Bacillus subtilis [8]): 3.6 µg/mL (≈ 6.97 µM); Ratio (Micrococcus luteus [11]): 2; Ratio (Bacillus subtilis [14]): 2; IC50 (Micrococcus luteus [16]): 3.3 µg/mL (≈ 6.39 µM)
